# Reference: US12398158B2, “Fluorescent GTP analogues and use” (CISBIO BIOASSAYS, priority 2019, dated 2025)
# Assays:
# Gαi protein [1] = assay: TR-FRET (HTRF) binding test of GTP analog-donor / anti-Gαi antibody DSV36S-d2, HEK293 Delta Opioid membranes; conditions: HEK293 membranes expressing Delta Opioid GPCR and Gαi, 1 μg per well; analog 1 nM; absence vs presence of GTPγS 100 μM
# From the text: (§1) • membrane preparations of cells expressing GPCRs and the G-alpha-i protein (Gαi) were purchased from Perkin Elmer or Euroscreen. The table below lists the cell backgrounds and references of the different samples used:
# (§2) • the DSV36 antibody was generated by Cisbio Bioassays and is available rom Cisbio Bioassays on request (under the reference DSV36S). The antibody was labeled with the fluorescent probe d2 (red acceptor) compatible for TR-FRET detection. The DSV36S antibody binds at the switch II of the Gαi protein. • the GTP and GTPγS nucleotides were purchased from Sigma Aldrich (respective catalog references G8877 and G8634). • the 384-well, low volume, white plates with a white background were purchased from Greiner Bio One (catalog reference 784075). • the non-hydrolyzable/slowly hydrolyzable GTP analogs labeled with donor fluorophores of lanthanide complex type were synthesized at Cisbio Bioassays. Methods Preparation of the Reagents
# Except for other specific mention, all the reagents were diluted in 50 mM Tris HCl pH 7.4, 10 mM MgCl2, 0.1% BSA, 10 mM NaCl, buffer. The membranes were prepared 4× to distribute 1 or 10 μg/well (amount specified in the key of each figure). The GTPγS nucleotide (non-specific signal condition) was prepared 6.67× to obtain a final concentration in the wells of 100 μM. The anti-Gαi antibody DSV36S-d2 used for the detection was prepared 4× to target the final concentration in the wells of 10 nM. […]
# (§3) The non-specific signal (background fluorescence noise) was measured with wells containing an excess of GTPγS (10 or 100 μM).
# (§4) The plates were incubated at 21° C. for 20 h and then the HTRF signal was measured on the PHERAstar reader (BMG Labtech) with the following configuration: • Module: HTRF (Excitation 337 nm, Emission 665 nm and 620 nm) • Excitation: laser, 40 flashes or lamp, 100 flashes • Reading window: delays: 60 μs-Integration: […] Signal Processing
# (§5) From the raw signals at 665 nm and 620 nm, the HTRF Ratio was calculated according to the following formula: HTRF Ratio=[(Signal at 665 nm)/(Signal at 620 nm)]×10 000 Test Format […]
# Gαi protein [2] = assay: TR-FRET (HTRF) binding test of GTP analog-donor / anti-Gαi antibody DSV36S-d2, CHO-K1 Delta Opioid membranes
# From the text: as §1, §2
# Except for other specific mention, all the reagents were diluted in 50 mM Tris HCl pH 7.4, 10 mM MgCl2, 0.1% BSA, 10 mM NaCl, buffer. The membranes were prepared 4× to distribute 1 or 10 μg/well (amount specified in the key of each figure). The GTPγS nucleotide (non-specific signal condition) was prepared 6.67× to obtain a final concentration in the wells of 100 μM. The anti-Gαi antibody DSV36S-d2 used for the detection was prepared 4× to target the final concentration in the wells of 10 nM. The non-hydrolyzable/slowly hydrolyzable GTP analogs labeled with fluorescent donor probes (lanthanide complexes) were prepared 4× to target the final concentrations in the wells mentioned in the keys of each figure.
# • Membranes expressing GPCR and the G protein: 5 μl • GTPγS buffer or nucleotide (for the non-specific signal condition): 3 μl • Non-hydrolyzable/slowly hydrolyzable GTP analog-donor: 5 μl • Anti-Gαi antibody-acceptor (DSV36S-d2): 5 μl • Buffer: 2 μl
# as §3, §4
# From the raw signals at 665 nm and 620 nm, the HTRF Ratio was calculated according to the following formula: HTRF Ratio=[(Signal at 665 nm)/(Signal at 620 nm)]×10 000 Test Format
# FIG. 2 illustrates the test format used to detect the binding of the compounds of formula (I) to the G protein. […] When the two FRET partners (test compound and anti-Gα protein antibody) bind to the same Gα protein, a FRET signal appears (left part of the figure: “Total Signal”) and is distinguished from the non-specific signal (background noise corresponding to the right part of the figure: “Non-Specific Signal”), which comprises a large excess of unlabeled GTPγS (displacement of the fluorescent GTP analog). […]
# GTPgN-octyl-C2 was used at a final concentration of 6 nM in the wells. The membranes were incubated in the absence or in the presence of a large excess of GTPγS (100 μM). […]
# GTPgN-octyl-C2 was used at a final concentration of 2 or 6 nM in the wells. The membranes were incubated in the absence or in the presence of a large excess of GTPγS (100 μM).
# Gαi protein [3] = assay: TR-FRET (HTRF) binding test of GTP analog-donor / anti-Gαi antibody DSV36S-d2, CHO-K1 Dopamine D2S membranes; conditions: CHO-K1 membranes expressing Dopamine D2S GPCR and Gαi, 10 μg per well; analog 6 nM; absence vs presence of GTPγS 100 μM
# From the text: as §1
# • the DSV36 antibody was generated by Cisbio Bioassays and is available rom Cisbio Bioassays on request (under the reference DSV36S). The antibody was labeled with the fluorescent probe d2 (red acceptor) compatible for TR-FRET detection. […]
# as §3, §4, §5
# [4] = CHO-K1 membranes expressing Delta Opioid GPCR and Gαi, 10 μg per well, analog 6 nM, absence vs presence of GTPγS 100 μM
Compound,HTRF Ratio total signal/non-specific signal (Gαi protein [1]),HTRF Ratio total signal/non-specific signal (Gαi protein [2]; [4]),further results
"Nc1nc2c(ncn2[C@@H]2O[C@H](COP(=O)(O)OP(=O)(O)OP(=O)(O)Nc3ccc(-c4cc(-c5cccc(CN(CC(=O)O)CC(=O)O)n5)nc(-c5cccc(CN(CC(=O)O)CC(=O)O)n5)c4)cc3)C(O)[C@@H]2O)c(=O)[nH]1 (some centres unmarked) [GTPgN—C3, GTP-gamma-N—C3]",1.7,–,–
GTP-gamma-N-octyl-C11 [GTPgN-octyl-C11],–,7.6,–
GTP-gamma-N—C2 [GTPgN—C2],–,16.6,–
"Nc1nc2c(ncn2[C@@H]2O[C@H](COP(=O)(O)OP(=O)(O)OP(=O)(O)NCCCCCCCCNc3nc(Cl)nc(Nc4ccc(-c5cc(-c6cccc(CN(CC(=O)O)CC(=O)O)n6)nc(-c6cccc(CN(CC(=O)O)CC(=O)O)n6)c5)cc4)n3)C(O)[C@@H]2O)c(=O)[nH]1 (some centres unmarked) [GTPgN-octyl-C3, GTP-gamma-N-octyl-C3]",1.4,–,–
GTP-gamma-N-octyl-thiosuccinimidyl-C2 [GTPgN-octyl-thiosuccinimidyl-C2],–,–,"HTRF Ratio total signal/non-specific signal (Gαi protein [2]; CHO-K1 Delta Opioid membranes 10 μg per well, analog 7.5 nM, buffer 60 mM MgCl2, 150 mM NaCl, presence vs absence of membrane preparation): 2.8"
GTP-gamma-O-hexyl-C3 [GTPgO-hexyl-C3],1.3,–,–
GTP-gamma-N-octyl-C2 [GTPgN-octyl-C2],–,12.4,"HTRF Ratio total signal/non-specific signal (Gαi protein [3]): 3.8; signal amplitude (S/N), effect of amount of membrane (Gαi protein [2]; CHO-K1 Delta Opioid membranes increased from 1 to 10 μg per well, FIG. 11A): increase in the signal amplitude (S/N) is observed; amplitude of the signal (S/N), effect of analog concentration (Gαi protein [2]; CHO-K1 Delta Opioid membranes, GTPgN-octyl-C2 increased from 2 to 6 nM, FIG. 11B): increase in the amplitude of the signal (S/N) is observed"
GTP-gamma-O-hexyl-C2 [GTPgO-hexyl-C2],–,7.1,–
